Measurements reported in PMC8624998, “Synthesis and Antiproliferative Evaluation of 3-Chloroazetidin-2-ones with Antimitotic Activity: Heterocyclic Bridged Analogues of Combretastatin A-4” (Pharmaceuticals, 2021).
Like-named read-outs stand apart in the source and are kept apart here.

Tests used:
MCF-7 cells [1] = details: MCF-7, 72 h; previously reported compounds, footnote g; cited from earlier work
MDA-MB-231 cells = experiment: Cell viability assay, antiproliferative activity; format: cell-based; details: Homo sapiens; MDA-MB-231, 72 h; 10e and 11n results from NCI; read-out: Antiproliferative Activity IC50 MDA-MB-231, 72 h
Description: Selected β-lactam compounds were next evaluated in the triple negative cell line MDA-MB-231 (Table 4). […] These cancers are difficult to treat since they are generally not responsive to hormone therapies such as the selective oestrogen receptor modulator (SERM) tamoxifen, or aromatase inhibitors such as anastrozole, or to the monoclonal antibody Herceptin, which targets the HER2 receptor. There are fewer treatment options available for TNBC compared with ER+, PR+ and HER2+ breast cancers and the prognosis is poorer. […]. The human breast carcinoma cell line MCF-7 was purchased from the European Collection of Animal Cell Cultures (ECACC). Triple negative breast cancer Hs578T cells and its invasive variant Hs578Ts(i)8 were a kind gift from Dr. Susan McDonnell, School of Chemical and Bioprocess Engineering, University College Dublin. U266 cells were a gift from Dr. Tony McElligott, School of Medicine, St James’s Hospital, Trinity College Dublin. HT-29 cells were purchased from the European Collection of Cell Cultures (originating from a human adenocarcinoma of the colon). The human breast carcinoma cell line MDA-MB-231 and the HL-60 cells derived from a patient with acute myeloid leukaemia were both obtained from ECACC (Salisbury, UK). The SW-480 cells were a kind gift from Dr. Brian Flood, School of Biochemistry and Immunology, Trinity College Dublin. HEK-293T (normal epithelial embryonic kidney cells) were cultured in Dulbecco’s Modified Eagle’s Medium (DMEM) with GlutaMAXTM-I in the absence of non-essential amino acids. Human breast cancer MCF-7 cells and multiple myeloma U266 cells were cultured in Minimum Essential Media (MEM) with GlutaMAX™-I, supplemented with 1% (v/v) non-essential amino acids, 10% 2(v/v) foetal bovine serum (FBS) and 1% (v/v) penicillin/streptomycin 5000 U/mL. MDA-MB-231 cells were maintained in DMEM supplemented with 10% (v/v) foetal bovine serum, 2 mM L-glutamine and 100 μg/mL penicillin/streptomycin (complete medium). Colon cancer HT-29 and SW-480 and triple negative breast cancer Hs578T and its invasive variant Hs578T8i were cultured in DMEM with GlutaMAX™-I, with the same supplement in the absence of non-essential amino acids. Leukaemia HL-60 cancer cells were cultured in Roswell Park Memorial Institute Media (RPMI-1640) with GlutaMAX™-I, supplemented with 10% FCS media, and 100 μg/mL penicillin/streptomycin as above. Cell numbers were monitored using a haemocytometer. Cell culture flasks were incubated in a humidified incubator (5% CO2/95% air) at 37 °C. All cell lines were sub-cultured three times per week with trypsinisation using TrypLE Express (1X) required for adherent cell lines.
(§1) . All stock solutions and serial dilution in ethanol/DMSO were stored at -20 °C. All cells were seeded at a density of 2.5 × 10^4 cells/mL in a 96-well plate (200 μL per well). The cells were incubated in a […] atmosphere at 37 °C for 24 h, then treated with test compound (2 μL of stock solutions per 200-microlitre well) in ethanol to obtain a concentration range of 1 nM–200 μM for the study. The plates were then re-incubated for a further 72 h. Control wells contained an equivalent volume of the vehicle ethanol or DMSO (1% v/v). MTT cell viability assay: The culture medium was removed, and the cells were washed with phosphate buffered saline (PBS, […]). MTT (dissolved in PBS, […]) was added to obtain a final concentration of MTT (1 mg/mL). Cells were incubated at 37 °C for 3 h in the dark. Solubilisation was commenced by the addition of DMSO ([…]) and the cells were maintained at 20 °C in the dark for 20 min before reading the absorbance to ensure complete colour diffusion. The absorbance value of control cells (no added compound) was set to 100% cell viability and absorbance versus cell density per well was determined to assess cell viability using Graph-Pad Prism software. […]

MCF-7 cells [2] = experiment: Lactate dehydrogenase (LDH) assay for cytotoxicity; format: cell-based; details: Homo sapiens, MCF7; MCF-7, compound concentration 10 μM, 24 h; read-out: Lactate Dehydrogenase assay: % cell lysis (cell death)
Experimental: The toxicity and selectivity of 10n towards normal cells was investigated in the non-tumourigenic cell line HEK-293T (normal human epithelial embryonic kidney cells). […] The cytotoxic effect of selected 3-chloro-β-lactams 10e, 10f, 10i, 10n and 3,3-dichloro-β-lactams 11e and 11n in MCF-7 cells was initially determined using the lactate dehydrogenase (LDH) assay.
The cytotoxicity of selected compounds was determined using the CytoTox 96 non-radioactive cytotoxicity assay (Promega Corporation, Madison, WI, USA). Briefly, MCF-7 cells were seeded in a 96-well plate (200 μL per well), at a density of 2.5 × 10^4 cells/mL, and incubated for 24 h. The cells were then treated with selected β-lactam compounds as described above for the cell viability assay. […] Supernatant (50 μL) was removed from each well to a 96-well plate. Reconstituted ‘CytoTox 96® Reagent (50 μL) was added to each well and the plate was placed in the dark at 20 °C for 30 min. ‘Stop solution’ (50 μL) was added to each well and the samples were analysed at 490 nm using a Dynatech MR5000 plate reader. The percentage cell death at 10 μM was calculated.

SW480 cells = experiment: Cell viability assay, antiproliferative activity; format: cell-based, human; details: SW480, 10 μM
Experimental: […]. The corresponding values for 10e in these cell lines were 161 nM (HL-60), 55 nM (SW480) and 135 nM (HT-29). […] […]. SW480 colon cells expressed low levels of the UDP-glucuronosyltransferase (UGT) protein compared to expression levels in HT-29 cells. […] […].
(§2) The human breast carcinoma cell line MCF-7 was purchased from the European Collection of Animal Cell Cultures (ECACC). Triple negative breast cancer Hs578T cells and its invasive variant Hs578Ts(i)8 were a kind gift from Dr. Susan McDonnell, School of Chemical and Bioprocess Engineering, University College Dublin. U266 cells were a gift from Dr. Tony McElligott, School of Medicine, St James’s Hospital, Trinity College Dublin. HT-29 cells were purchased from the European Collection of Cell Cultures (originating from a human adenocarcinoma of the colon). The human breast carcinoma cell line MDA-MB-231 and the HL-60 cells derived from a patient with acute myeloid leukaemia were both obtained from ECACC (Salisbury, UK). The SW-480 cells were a kind gift from Dr. Brian Flood, School of Biochemistry and Immunology, Trinity College Dublin. HEK-293T (normal epithelial embryonic kidney cells) were cultured in Dulbecco’s Modified Eagle’s Medium (DMEM) with GlutaMAXTM-I in the absence of non-essential amino acids. Human breast cancer MCF-7 cells and multiple myeloma U266 cells were cultured in Minimum Essential Media (MEM) with GlutaMAX™-I, supplemented with 1% (v/v) non-essential amino acids, 10% 2(v/v) foetal bovine serum (FBS) and 1% (v/v) penicillin/streptomycin 5000 U/mL. MDA-MB-231 cells were maintained in DMEM supplemented with 10% (v/v) foetal bovine serum, 2 mM L-glutamine and 100 μg/mL penicillin/streptomycin (complete medium). Colon cancer HT-29 and SW-480 and triple negative breast cancer Hs578T and its invasive variant Hs578T8i were cultured in DMEM with GlutaMAX™-I, with the same supplement in the absence of non-essential amino acids. Leukaemia HL-60 cancer cells were cultured in Roswell Park Memorial Institute Media (RPMI-1640) with GlutaMAX™-I, supplemented with 10% FCS media, and 100 μg/mL penicillin/streptomycin as above. Cell numbers were monitored using a haemocytometer. Cell culture flasks were incubated in a humidified incubator (5% CO2/95% air) at 37 °C. All cell lines were sub-cultured three times per week with trypsinisation using TrypLE Express (1X) required for adherent cell lines.
as §1, with “software. AlamarBlue cell viability assay: Cells were seeded in 96-well plates (e.g., MCF-7, 5 × 10^3 cells/well) and (HT-29 cells, 1 × 10^3 cells/well) and (HL-60 cells, 1 × 10^4 cells/well) with a total volume per well of 200 µL. After 24 h, cells were treated in triplicate with serial dilutions of CA-4 or β-lactam analogues (0.001–100 μM), medium alone or vehicle (1% ethanol (v/v)).” for “software.”

MCF-7 cells [3] = experiment: Cell viability assay (MTT/AlamarBlue), antiproliferative activity; format: cell-based, human
Description: […]. The introduction of the halogen substituent at C-3 was examined in an effort to investigate the effect on the activity of this substituent, and subsequently optimising the cytotoxic effects against MCF-7 human breast cancer cells.
as §2
as §1, with “software. AlamarBlue cell viability assay: Cells were seeded in 96-well plates (e.g., MCF-7, 5 × 10^3 cells/well) and (HT-29 cells, 1 × 10^3 cells/well) and (HL-60 cells, 1 × 10^4 cells/well) with a total volume per well of 200 µL. After 24 h, cells were treated in triplicate with serial dilutions of CA-4 or β-lactam analogues (0.001–100 μM), medium alone or vehicle (1% ethanol (v/v)).” for “software.”

[4] = HPLC stability study in phosphate buffers; format: physicochemical; details: phosphate buffer
Experimental: HPLC stability studies at three different pH systems were performed on a representative compound 16a to determine the stability at acidic pH 4, pH 7.4 and basic pH 9 (acid pH found in the stomach, basic found in the intestine and pH 7.4 in the plasma).
A stability study for compound 16a was performed by analytical HPLC using a Symmetry® column (C18, […], 4.6 × 150 mm), a Waters 2487 Dual Wavelength Absorbance detector, a Waters 1525 binary HPLC pump and a Waters 717 plus Autosampler (Waters Corporation, Milford, MA, USA). Samples were detected at λ 254 nm using acetonitrile (70%)/water (30%) as the mobile phase over 15 min and a flow rate of 1 mL/min. A stock solution of the compound was prepared using 10 mg of compound 16a in 10 mL of mobile phase (1 mg/mL). A calibration curve was prepared using a solution of 0.5, 0.25, 0.125, 0.0625, 0.03125, 0.015625 and 0.0078 mg/mL. (i) Stability of 16a in phosphate buffers: Phosphate buffers at pH values 4, 7.4 and 9 were prepared according to the British Pharmacopoeia 2020. A total of 300 µL of stock solution (1 mg/mL ACN) for 16a was added to a vial containing 9.7 mL of buffer, mixed and pre-heated to 37°C. A total of 1 mL of the solution was added to the HPLC glass vial and 10 µL was injected, followed by hourly injections for a 24-h period. Samples were withdrawn and analysed at time intervals of t = 0 min, 5 min, 30 min, 60 min and hourly for 24 h. The analysis was performed in triplicate. (ii) Thermal stability: 16a (1 mg) was placed in a vial (for the solution, 1 mL of stock solution was used) at 60 °C for 4 h on a heating block. The sample was then cooled, diluted with ACN and analysed using HPLC. (iii) Photostability study: A solution of compound 16a (1 mL of the stock solution) was placed in a vial and exposed to UV light for 4 h. The sample was directly analysed using HPLC. […] Once neutralised, the samples were analysed using HPLC. […] Once neutralised, the samples were analysed using HPLC. […] A sample from the vial was taken every hour over 4 h and analysed using HPLC.

| Compound | IC50 (MCF-7 cells [1]) | IC50 (MDA-MB-231 cells) | cytotoxicity at 10 µM (MCF-7 cells [2]) | SW480 inhibition of cell viability (SW480 cells) | IC50 (MCF-7 cells [3]; Homo sapiens, MCF7, 72 h, MCF-7, 72 h, read-out: IC50 (MCF-7, 72 h)) | fold decrease in activity vs corresponding 3-chloro compound 10e (MCF-7 cells [3]; MCF-7 IC50 ratio) | half-life at 0.03 mg/mL ([4]; buffer pH 4, 37°C) | half-life at 0.03 mg/mL ([4]; buffer pH 7.4, 37°C) | half-life at 0.03 mg/mL ([4]; buffer pH 9, 37°C) |
| --- | --- | --- | --- | --- | --- | --- | --- | --- | --- |
| COc1ccc(C2N(c3cc(OC)c(OC)c(OC)c3)C(=O)C2(Cl)Cl)cc1 (stereo not drawn) [Compound 11e] | 119 ± 12 nM | 297 ± 40 nM | 10% | – | – | – | – | – | – |
| COc1ccc(C2C(Br)C(=O)N2c2cc(OC)c(OC)c(OC)c2)cc1 (stereo not drawn) [Compound 16a, 3-Bromo-4-(4-methoxyphenyl)-1-(3,4,5-trimethoxyphenyl)azetidin-2-one] | – | – | – | 52% | 579 ± 30 nM | 17 fold | 18 h | 22 h | 20 h |
